Assay results: patent publication US8106037B2, “Identification and treatment of estrogen responsive prostate tumors” (The Brigham and Women's Hospital, Inc., priority 2007, dated 2012)
“Also recorded” adds a separate entry of the source. Read-outs that look alike come from different tables or passages of the source.

Experiments:
[1] = test system: NCI-H660 prostate cancer cell line; assay: Cell growth assay (Cell Titer-Glo luminescent assay); format: cell-based; details: final concentration 10^−8M, relative cell number 2-12 d
Experimental: The prostate cancer cell lines NCI-[…] and VCaP were maintained according to ATCC instructions. […] NCI-[…] cells were seeded in a 96-well plate ( 5×10^3 cells/well) and stimulated with hormone or vehicle alone. Relative cell number was determined before (time 0 used for normalization) and after stimulation (2, 3, 6, 8, 10, 12 d) using the Cell Titer-Glo luminescent assay (Promega).

[2] = test system: TMPRSS2-ERG fusion transcript; assay: TMPRSS2-ERG fusion transcript expression in ERβ-overexpressing VCaP cells
Experimental: (§1) Fusion status was determined by ERG break-apart FISH assay (Pemer, et al., Cancer Res. 66:8337-8341 (2006)) and QPCR (for cases not assessable by FISH). An aliquot of the RNA used for DASL was used for QPCR. cDNA was synthesized as above. TMPRSS2-ERG fusion product was determined using SYBR green assay (Qiagen) with TMPRSS2-ERG_f and TMPRSS2-ERG_r primers (Tomlins, et al., Science 310:644-648 (2005)). RPL13A was used for normalization. For estrogen experiments, cDNA was synthesized using the Omniscript RT kit (Qiagen) and HMBS was used for normalization. Relative quantitation was carried out using the comparative Ct method.
(§2) The prostate cancer cell lines NCI-H660 and VCaP were maintained according to ATCC instructions. The cells were hormone-deprived by culture for three days in their respective phenol red-free media (for NCI-H660 without E2 and hydrocortisone) supplemented with 5% CDT-FBS (Invitrogen). Cells were challenged with hormones or vehicle for 12, 24 or 48 hours.
(§3) Reagents were used at a final concentration of 10^−8M.
VCaP cells were transiently transfected with ERβ containing plasmid using Lipofectamine2000 (Invitrogen) for 6 h. Transfection medium was removed after 6 h, cells were washed in PBS twice, and phenol red-free DMEM (Cellgro) supplemented with 5% CDT-FBS (Invitrogen) was added. Cells were challenged with hormones or vehicle 48 hours after transfection. NCI-H660 cells were transiently transfected with smart pool siRNA against ERβ (Dharmacon).

[3] = test system: TMPRSS2-ERG fusion transcript; assay: TMPRSS2-ERG fusion transcript expression (QPCR) in NCI-H660 cells
Experimental: as §1, §2, §3

[4] = test system: TMPRSS2-ERG fusion transcript; assay: TMPRSS2-ERG fusion transcript expression in non-ERβ-overexpressing VCaP cells
Experimental: as §1, §2, §3

[5] = NCI-H660 cells, final concentration 10^−8M, 12, 24 or 48 hours
[6] = ERβ-overexpressing VCaP cells (VCaP-ERβ, ERα negative), final concentration 10^−8M

Structure (SMILES) | growth of NCI-H660 cells [1] | TMPRSS2-ERG expression [3, 5] | TMPRSS2-ERG fusion transcript expression [2, 6] | TMPRSS2-ERG expression [3] | other results
N#CC(Cc1ccc(O)cc1)c1ccc(O)cc1 (stereo not drawn) [DPN, diarylpropionitrile] | suppressed growth | suppressed expression of the fusion; also recorded: significantly decreased TMPRSS2-ERG expression |  |  | TMPRSS2-ERG fusion transcript expression [2]: down-regulation of the TMPRSS2-ERG fusion transcript; TMPRSS2-ERG fusion transcript expression [4]: down-regulation was not seen
C[C@]12CC[C@@H]3c4ccc(O)cc4CC[C@H]3[C@@H]1CC[C@@H]2O [E2, 17β-estradiol] | significantly inhibited |  | down-regulation of the TMPRSS2-ERG fusion transcript |  | TMPRSS2-ERG fusion transcript expression ([4]; non-ERβ-overexpressing VCaP cells, final concentration 10^−8M): down-regulation was not seen
CCCc1c(-c2ccc(O)cc2)nn(-c2ccc(O)cc2)c1-c1ccc(O)cc1 [PPT, propylpyrazole triol] |  |  |  | increased TMPRSS2-ERG expression | 
C[C@]12CC[C@@H]3c4ccc(O)cc4C[C@@H](CCCCCCCCC[S+]([O-])CCCC(F)(F)C(F)(F)F)[C@H]3[C@@H]1CC[C@@H]2O (stereo partly drawn) [fulvestrant] |  | reduced the expression of the fusion transcript |  |  | 
O=C(c1ccc(OCCN2CCCCC2)cc1)c1c(-c2ccc(O)cc2)sc2cc(O)ccc12 [raloxifene] |  | up-regulation of TMPRSS2-ERG | remarkable down-regulation of the fusion transcript |  | 
Oc1ccc(/C=C/c2cc(O)cc(O)c2)cc1 [resveretrol] |  |  |  | reduced the expression of the fusion transcript | 
